Measured values published in patent publication US6784208B2, “Method for preventing and treating visceral pain and gastrointestinal disorders” (Warner-Lambert Company, priority 2001, dated 2004).
Read-outs that look alike come from different tables or passages of the source.

Assays:
[1] = tested on: TNBS-induced chronic visceral allodynia; test: TNBS-induced chronic visceral allodynia in rats (colonic distension); type: in vivo, rat; conditions: for Inhibition at 1 h (%) of the TNBS-induced decrease in the pain threshold: 1 h before colonic distension, rats
Description: In this experimental model of colonic distension in awake rats, previous injection of TNBS into the proximal colon had lowered the visceral pain threshold.
Male Sprague-Dawley rats weighing 340-400 g are used. The animals are housed 3 per cage in a regulated environment (20±1° C., 50±5% humidity, with light 8:00 am to 8:00 pm). At day 0, under anesthesia (ketamine 80 mg/kg ip.; acepromazine 12 mg/kg ip.), the injection of TNBS (50 mg/kg in ethanol 30%), or saline (1.5 ml/kg) for control rats, is performed into the proximal colon wall (1 cm from the cecum). After the surgery, animals are individually housed in polypropylene cages and kept in a regulated environment (20±1° C., 50±5% humidity, with light 8:00 a.m. to 8:00 p.m.) during 7 days. At day 7 after TNBS administration, a balloon (5-6 cm length) is inserted by anus, and kept in position (tip of balloon 5 cm from the anus) by taping the catheter to the base of the tail. Oral administration of gabapentin or the compound of formula Ia is performed 1 h before the colonic distension cycle: the balloon is progressively inflated by steps of 5 mm Hg (0.667 kPa), from 0 to 75 mm Hg, each step of inflation lasting 30 s. Each cycle of colonic distension is controlled by a standard barostat. The threshold (mm Hg) corresponds to the pressure which produced the first abdominal contraction, and the cycle of distension is then discontinued. The colonic threshold is determined after performance of four cycles of distension on the same animal.
Data is analyzed by comparing test compound-treated groups with a TNBS only-treated group and the control group. Mean and SEM are calculated for each group. The antiallodynic activity of each oral dose of the test compound is calculated as follows: [formula]
where A=mean threshold of the test compound-treated group,
T=mean threshold of the TNBS only-treated group,
C=mean threshold of the control group.
The results measured in the test compound-treated groups are expressed in % inhibition of the TNBS-induced decrease in the pain threshold. Statistical significance between each group was determined by using a one-way ANOVA followed by Student's unpaired t-test; differences were considered statistically significant at p<0.05.

[2] = tested on: LPS-induced rectal hypersensitivity; test: LPS-induced rectal hypersensitivity in rats (rectal distension, abdominal contractions); type: in vivo, rat; conditions: for inhibition of the number of abdominal contractions induced by rectal distension: distension at 0.4 ml, LPS treated rats
Description: Animals are surgically prepared for electromyography: rats are anaesthetized by intraperitoneal injection of acepromazine (0.6 mg/kg) and ketamine (120 mg/kg). […] Electrodes are exteriorized on the back of the neck and protected by a glass tube attached to the skin. Animals are individually housed in polypropylene cages and kept in a temperature-controlled room (21° C.). Food (UAR pellets, Epinay, France) and water are provided ad libitum.
Electromyographic recordings begin five days after surgery. The electrical activity of abdominal striated muscles is recorded with an electroencephalograph machine (Mini VIII Alvar, Paris, France) using a short time constant (0.03 s) to remove low-frequency signals (<3 Hz) and a paper speed of 3.6 cm/min. Spike bursts are recorded as an index of abdominal contractions.
Distension procedure: Rats are placed in plastic tunnels (6 cm diameter×25 cm long), where they cannot move, escape, or turn around, in order to prevent damage to the balloon. Animals are accustomed to this procedure for four days before rectal distension in order to minimize stress reactions during experiments. The balloon used for distension is an arterial embolectomy catheter (Fogarty, Edwards Laboratories Inc.). Rectal distension is performed by insertion of the balloon (2 mm diameter×2 cm long) into the rectum, at 1 cm from the anus, and catheter is fixed at the base of the tail. It is inflated progressively with tepid water by steps of 0.4 ml, from 0 to 1.2 ml, each step of inflation lasting 5 min. To detect possible leakage, the volume of water introduced in the balloon is checked by complete removal with a syringe at the end of the distension period.
Experimental protocol: Rats are injected i.p. with LPS (1 mg/kg (Escherichia coli, serotype O111:B4) Sigma-Aldrich chemical Co., St Louis, Mo.) or its vehicle, and rectal distension with concomitant electromyographic recording of abdominal contractions is performed 9 and 12 h after this administration. To determine the antinociceptive properties of gabapentin and the compound of formula Ia in hyperalgesia conditions, gabapentin (10 and 30 mg/kg) and the compound of formula Ia (0.01, 0.03 and 0.1 mg/kg) or the vehicle (NaCl 0.9% 0.3 ml/rat) are administered per os 1 h before rectal distension but preceded (12 h) by injection of LPS (1 mg/kg i.p.).
Drugs: All compounds were dissolved in sterile NaCl (0.9% isotonic saline) immediately before use.
Statistics: Statistical analysis of the number of abdominal contractions occurring during each period of rectal distension is performed by one-way ANOVA followed by parametric Student's unpaired t test.

[3] = tested on: TNBS-induced chronic visceral allodynia; conditions: cited from earlier work

1-(aminomethyl)cyclohexane acetic acid [gabapentin]
Inhibition at 1 h (%) of the TNBS-induced decrease in the pain threshold ([1]; 100 mg/kg p.o.): 14.7 ± 5.1% | Inhibition at 1 h (%) of the TNBS-induced decrease in the pain threshold ([1]; 300 mg/kg p.o.): 48.6 ± 13.3% | Inhibition at 1 h (%) of the TNBS-induced decrease in the pain threshold ([1]; 500 mg/kg p.o.): 64.9 ± 10.5% | Inhibition at 1 h (%) of the TNBS-induced decrease in the pain threshold ([1]; 1000 mg/kg p.o.): 75.2 ± 6.1% | median effective dose (ED50), antiallodynic activity ([1]; p.o., TNBS-treated rats): 321 mg/kg | inhibition of the number of abdominal contractions induced by rectal distension ([2]; 10 mg/kg p.o., not significant): 24.9% | inhibition of the number of abdominal contractions induced by rectal distension ([2]; 30 mg/kg p.o.): 85.3% | effect on TNBS-induced colonic hypersensitivity ([3]; model of chronic allodynia (Diop et al. 1998)): suppress | effect on colonic threshold ([3]; s.c. route, control conditions): not to modify the colonic threshold

CN1CC[C@]23c4c5ccc(O)c4O[C@H]2[C@@H](O)C=C[C@H]3[C@H]1C5 [morphine]
effect on colonic threshold ([3]; s.c., both TNBS-treated animals and controls): increased the colonic threshold

NC[C@]1(CC(=O)O)C[C@H]2CC[C@H]2C1 [compound of formula Ia, (1α,3α,5α)-3-aminomethyl-bicyclo[3.2.0]heptane-3-acetic acid]
Inhibition at 1 h (%) of the TNBS-induced decrease in the pain threshold ([1]; 3 mg/kg p.o.): 21.7 ± 3.0% | Inhibition at 1 h (%) of the TNBS-induced decrease in the pain threshold ([1]; 10 mg/kg p.o.): 34.2 ± 5.7% | Inhibition at 1 h (%) of the TNBS-induced decrease in the pain threshold ([1]; 30 mg/kg p.o.): 58.8 ± 6.2% | Inhibition at 1 h (%) of the TNBS-induced decrease in the pain threshold ([1]; 60 mg/kg p.o.): 90.4 ± 9.8% | ED50 ([1]; Rattus norvegicus, po, TNBS-treated rats, read-out: median effective dose (ED50), antiallodynic activity): 14.4 mg/kg | effect on the number of abdominal contractions induced by rectal distension ([2]; 0.01, 0.03 and 0.1 mg/kg po, distension at 0.4 ml after LPS treatment (FIG. 1)): inhibits in a dose-related manner | fold more potent than gabapentin ([2]; LPS-induced rectal hypersensitivity model, p.o.): about 500 fold | ED50 ([2]; Rattus norvegicus, po, distension at 0.4 ml after LPS treatment, read-out: ED50, inhibition of abdominal contractions induced by rectal distension): 0.037 mg/kg
